Results taken from the NIST ThermoML archive (doi:10.1021/je900550v).

Settings: 101.33 kPa, Liquid; for speed of sound: Pulse-echo method; for mass density: Vibrating tube method

C[NH2+]CCO.O=C[O-] [2-hydroxy-N-methylethanaminium formate]
Settings	mass density [kg/m3]	speed of sound [m/s]	viscosity [mPa·s]
278.15 K	1139.41	1854.7	–
278.4 K	1139.26	1854.2	–
278.65 K	1139.13	1853.7	–
278.9 K	1138.99	1853.2	–
279.15 K	1138.85	1852.7	–
279.4 K	1138.71	1852.2	–
279.65 K	1138.58	1851.7	–
279.9 K	1138.44	1851.2	–
280.15 K	1138.3	1850.7	–
280.4 K	1138.16	1850.2	–
280.65 K	1138.02	1849.7	–
280.9 K	1137.88	1849.2	–
281.15 K	1137.73	1848.7	–
281.4 K	1137.6	1848.2	–
281.65 K	1137.46	1847.7	–
281.9 K	1137.32	1847.2	–
282.15 K	1137.18	1846.8	–
282.4 K	1137.04	1846.3	–
282.65 K	1136.9	1845.8	–
282.9 K	1136.77	1845.3	–
283.15 K	1136.62	1844.8	–
283.4 K	1136.49	1844.3	–
283.65 K	1136.35	1843.8	–
283.9 K	1136.21	1843.3	–
284.15 K	1136.07	1842.8	–
284.4 K	1135.93	1842.3	–
284.65 K	1135.79	1841.8	–
284.9 K	1135.65	1841.3	–
285.15 K	1135.51	1840.8	–
285.4 K	1135.37	1840.3	–
285.65 K	1135.23	1839.8	–
285.9 K	1135.09	1839.3	–
286.15 K	1134.95	1838.9	–
286.4 K	1134.81	1838.4	–
286.65 K	1134.67	1837.9	–
286.9 K	1134.53	1837.4	–
287.15 K	1134.39	1836.9	–
287.4 K	1134.25	1836.4	–
287.65 K	1134.11	1835.9	–
287.9 K	1133.97	1835.4	–
288.15 K	1133.84	1834.9	34.2
288.4 K	1133.69	1834.4	–
288.65 K	1133.55	1833.9	–
288.9 K	1133.41	1833.4	–
289.15 K	1133.28	1833	–
289.4 K	1133.13	1832.5	–
289.65 K	1133	1832	–
289.9 K	1132.86	1831.5	–
290.15 K	1132.72	1831	–
290.4 K	1132.58	1830.5	–
290.65 K	1132.44	1830	30.15
290.9 K	1132.3	1829.5	–
291.15 K	1132.16	1829	–
291.4 K	1132.01	1828.5	–
291.65 K	1131.88	1828	–
291.9 K	1131.74	1827.5	–
292.15 K	1131.6	1827	–
292.4 K	1131.46	1826.6	–
292.65 K	1131.32	1826.1	–
292.9 K	1131.18	1825.6	–
293.15 K	–	1825.1	26.05
